Patent publication US7507741B2, “Heterocyclic compounds” (SmithKline Beecham Corporation, priority 1999, dated 2009)

Columns and labels:
c-erbB-4 = biological target: T1, c-erbB-4 (Homo sapiens, UniProt Q15303); assay: Substrate phosphorylation assay, c-erbB-4; format: biochemical; conditions: recombinant intracellular domain, baculovirus expressed; ATP and peptide at Km; read-out: ErbB4 IC50
T1 construct: baculovirus expressed, recombinant constructs of the intracellular domains of c-erbB-2 and c-erbB-4; made in house
T1 sequence (Q15303 676-1308 limits assumed): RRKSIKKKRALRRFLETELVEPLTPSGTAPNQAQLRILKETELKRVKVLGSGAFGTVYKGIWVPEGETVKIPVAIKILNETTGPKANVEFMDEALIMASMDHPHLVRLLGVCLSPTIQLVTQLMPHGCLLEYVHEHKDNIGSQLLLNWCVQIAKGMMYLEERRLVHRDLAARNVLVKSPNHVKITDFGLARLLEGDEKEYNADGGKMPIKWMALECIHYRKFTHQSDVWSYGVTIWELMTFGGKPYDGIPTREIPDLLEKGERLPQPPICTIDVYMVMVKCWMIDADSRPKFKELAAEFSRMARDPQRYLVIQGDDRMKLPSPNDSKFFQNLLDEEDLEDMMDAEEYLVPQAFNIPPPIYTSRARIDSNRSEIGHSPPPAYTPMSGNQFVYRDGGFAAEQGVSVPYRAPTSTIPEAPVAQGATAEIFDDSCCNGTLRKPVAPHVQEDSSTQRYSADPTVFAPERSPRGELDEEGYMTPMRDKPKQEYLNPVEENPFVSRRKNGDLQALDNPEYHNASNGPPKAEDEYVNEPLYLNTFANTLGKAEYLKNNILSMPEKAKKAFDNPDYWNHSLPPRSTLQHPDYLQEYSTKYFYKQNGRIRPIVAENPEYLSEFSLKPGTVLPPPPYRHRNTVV
Description: The substrate phosphorylation assays use baculovirus expressed, recombinant constructs of the intracellular domains of c-erbB-2 and c-erbB-4 that are constitutively active and EGFr isolated from solubilised A431 cell membranes. The method measures the ability of the isolated enzymes to catalyse the transfer of the γ-phosphate from ATP onto tyrosine residues in a biotinylated synthetic peptide (Biotin-[…]. […] The reaction is stopped by the addition of EDTA (final concentration 0.15 mM) and a sample is transferred to a streptavidin-coated 96-well plate. The plate is washed and level of phosphotyrosine on the peptide is determined using a Europium-labelled antiphosphotyrosine antibody and quantified with a time-resolved fluorescence technique. The results are shown in Table 1 as the IC50 value in Micromolar ranges.

c-erbB-2 = biological target: T2, c-erbB-2 (Homo sapiens, UniProt P04626); assay: Substrate phosphorylation assay, c-erbB-2; format: biochemical; conditions: recombinant intracellular domain, baculovirus expressed; ATP and peptide at Km; read-out: ErbB2 IC50
T2 construct: baculovirus expressed, recombinant constructs of the intracellular domains of c-erbB-2 and c-erbB-4; made in house
T2 sequence (P04626 676-1255 limits assumed): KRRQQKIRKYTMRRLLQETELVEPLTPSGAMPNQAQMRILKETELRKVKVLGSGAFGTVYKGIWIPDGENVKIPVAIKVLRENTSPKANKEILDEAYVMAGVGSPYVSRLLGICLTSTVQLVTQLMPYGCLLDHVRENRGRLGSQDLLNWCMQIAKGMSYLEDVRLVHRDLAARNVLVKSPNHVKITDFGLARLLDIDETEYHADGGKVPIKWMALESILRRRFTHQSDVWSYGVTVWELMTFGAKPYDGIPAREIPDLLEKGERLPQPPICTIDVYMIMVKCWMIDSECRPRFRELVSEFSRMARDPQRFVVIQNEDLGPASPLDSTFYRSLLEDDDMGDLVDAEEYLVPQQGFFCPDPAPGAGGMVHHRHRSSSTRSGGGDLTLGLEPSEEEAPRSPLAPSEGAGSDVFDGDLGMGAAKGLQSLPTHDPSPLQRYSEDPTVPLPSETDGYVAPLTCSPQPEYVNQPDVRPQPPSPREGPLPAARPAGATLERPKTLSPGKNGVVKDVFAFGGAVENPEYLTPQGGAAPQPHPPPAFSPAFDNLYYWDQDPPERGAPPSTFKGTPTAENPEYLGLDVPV
Description: (§1) The substrate phosphorylation assays use baculovirus expressed, recombinant constructs of the intracellular domains of c-erbB-2 and c-erbB-4 that are constitutively active and EGFr isolated from solubilised A431 cell membranes. […] The reaction is stopped by the addition of EDTA (final concentration 0.15 mM) and a sample is transferred to a streptavidin-coated 96-well plate. The plate is washed and level of phosphotyrosine on the peptide is determined using a Europium-labelled antiphosphotyrosine antibody and quantified with a time-resolved fluorescence technique. The results are shown in Table 1 as the IC50 value in Micromolar ranges.

[1] = biological target: T3, EGFr isolated from solubilised A431 cell membranes (Homo sapiens, UniProt P00533); assay: Substrate phosphorylation assay, EGFr; format: biochemical; conditions: ATP and peptide at Km
T3 construct: EGFr isolated from solubilised A431 cell membranes; endogenous in cells; host or cells: A431 cell membranes, solubilised
T3 sequence (P00533 25-1210): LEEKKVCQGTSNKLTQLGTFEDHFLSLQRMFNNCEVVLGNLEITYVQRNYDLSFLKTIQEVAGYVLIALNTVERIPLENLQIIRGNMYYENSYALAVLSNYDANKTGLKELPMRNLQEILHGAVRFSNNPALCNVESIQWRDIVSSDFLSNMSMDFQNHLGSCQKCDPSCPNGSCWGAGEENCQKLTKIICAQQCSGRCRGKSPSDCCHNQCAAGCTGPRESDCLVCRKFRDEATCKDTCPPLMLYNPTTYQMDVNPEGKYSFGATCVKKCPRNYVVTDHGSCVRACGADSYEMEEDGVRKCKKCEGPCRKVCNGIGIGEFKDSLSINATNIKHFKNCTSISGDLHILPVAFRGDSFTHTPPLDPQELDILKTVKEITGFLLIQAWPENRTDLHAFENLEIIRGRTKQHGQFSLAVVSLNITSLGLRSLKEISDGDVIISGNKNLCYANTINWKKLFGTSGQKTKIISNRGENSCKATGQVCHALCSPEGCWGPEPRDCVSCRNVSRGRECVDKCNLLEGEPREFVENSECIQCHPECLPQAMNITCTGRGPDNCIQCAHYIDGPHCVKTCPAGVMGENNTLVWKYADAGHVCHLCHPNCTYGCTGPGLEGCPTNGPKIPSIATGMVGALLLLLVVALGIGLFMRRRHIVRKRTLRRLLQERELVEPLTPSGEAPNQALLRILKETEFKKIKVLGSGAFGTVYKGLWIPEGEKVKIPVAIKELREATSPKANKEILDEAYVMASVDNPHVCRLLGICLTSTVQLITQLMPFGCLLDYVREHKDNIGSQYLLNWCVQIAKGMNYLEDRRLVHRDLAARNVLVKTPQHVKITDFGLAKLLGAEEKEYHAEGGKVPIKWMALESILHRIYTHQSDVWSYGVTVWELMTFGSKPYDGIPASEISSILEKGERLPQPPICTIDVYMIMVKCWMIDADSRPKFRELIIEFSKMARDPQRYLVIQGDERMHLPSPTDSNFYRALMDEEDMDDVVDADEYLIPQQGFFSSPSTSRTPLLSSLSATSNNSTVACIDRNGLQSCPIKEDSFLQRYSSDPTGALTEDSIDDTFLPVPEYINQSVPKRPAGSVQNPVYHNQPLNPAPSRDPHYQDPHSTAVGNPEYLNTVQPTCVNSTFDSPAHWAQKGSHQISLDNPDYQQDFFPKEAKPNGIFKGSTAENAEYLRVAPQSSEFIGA
Description: as §1, with “technique.” for “technique. The results are shown in Table 1 as the IC50 value in Micromolar ranges.”

BT474 cells = assay: Methylene blue growth inhibition assay, BT474; format: cell-based; conditions: BT-474, 72 h; human breast tumor cell line, 3 days
Description: (§2) Human breast (BT474), head and neck (HN5) and gastric tumor (N87) cell lines were cultured in low glucose DMEM (Life Technologies 12320-032) containing 10% fetal bovine serum (FBS) at 37° C. in a humidified 10% CO2, 90% air incubator. The SV40 transformed human mammary epithelial cell line HB4a was transfected with either human H-ras cDNA (HB4a r4.2) or the human c-erbB2 cDNA (HB4a c5.2). The HB4a clones were cultured in RPMI containing 10% FBS, insulin (5 μg/ml), hydrocortisone (5 μg/ml), supplemented with the selection agent hygromycin B (50 μg/ml). Cells were harvested using trypsin/EDTA, counted using a haemocytometer, and plated in […] of the appropriate media, at the following densities, in a 96-well tissue culture plate (Falcon 3075): BT474 10,000 cells/well, HN5 3,000 cells/well, N87 10,000 cells/well, HB4a c5.2 3,000 cells/well, HB4a r4.2 3,000 cells/well. The next day, compounds were diluted in DMEM containing […] gentamicin, at twice the final required concentration, from 10 mM stock solutions in DMSO. […] of these dilutions were added to the […] of media currently on the cell plates. Medium containing 0.6% DMSO was added to control wells. Compounds diluted in DMEM were added to all cell lines, including the HB4a r4.2 and HB4a c5.2 cell lines. The final concentration of DMSO in all wells was 0.3%. Cells were incubated at 37° C., 10% CO2 for 3 days. Medium was removed by aspiration. Cell biomass was estimated by staining cells with 100 μl per well methylene blue (Sigma M9140, 0.5% in 50:50 ethanol:water), and incubation at room temperature for at least 30 minutes. Stain was removed, and the plates rinsed under a gentle stream of water, and air-dried. To release stain from the cells 100 μl of solubilization solution was added (1% N-lauroyl sarcosine, Sodium salt, Sigma L5125, in PBS), and plates were shaken gently for about 30 minutes. Optical density at 620 nm was measured on a microplate reader. Percent inhibition of cell growth was calculated relative to vehicle treated control wells. Concentration of compound that inhibits 50% of cell growth (IC50) was interpolated using nonlinear regression (Levenberg-Marquardt) and the equation, y=Vmax*(1−(x/(K+x)))+Y2, where “K” was equal to the IC50.

N87 cells = assay: Methylene blue growth inhibition assay, N87; format: cell-based; conditions: 72 h; human gastric tumor cell line, 3 days
Description: as §2

HN5 cells = assay: Methylene blue growth inhibition assay, HN5; format: cell-based; conditions: HN5, 72 h; human head and neck tumor cell line, 3 days
Description: as §2

HB4a c5.2 cells = assay: Methylene blue growth inhibition assay, HB4a c5.2; format: cell-based; conditions: HB4a-C5.2, 72 h; human mammary epithelial line transfected with human c-erbB2 cDNA, 3 days; read-out: HB4a c5.2 IC50 (cell growth)
Description: as §2

Compound	IC50 (c-erbB-4) [nM]	IC50 (c-erbB-2) [nM]	IC50 [1] [nM]	IC50 (BT474 cells) [nM]	IC50 (N87 cells) [nM]	IC50 (HN5 cells) [nM]	IC50 (HB4a c5.2 cells) [nM]
O=S(=O)(CCOCc1ccc(-c2ccc3ncnc(Nc4ccc(OCc5cccc(F)c5)c(Cl)c4)c3c2)o1)c1ccccc1 [Example 3, N-{3-chloro-4-[(3-fluorobenzyl)oxy]phenyl}-6-(5-{[2-(phenylsulfonyl)ethoxy]methyl}-2-furyl)-4-quinazolinamine]	1000 to 10000	< 100	< 100	100 to 1000	100 to 1000	100 to 1000	100 to 1000
O=S(=O)(CCNCc1ccc(-c2ccc3ncnc(Nc4ccc(OCc5cccc(F)c5)c(Cl)c4)c3c2)o1)c1ccccn1 [Example 5]	1000 to 10000	< 100	< 100	1000 to 10000	100 to 1000	100 to 1000	1000 to 10000
CCCS(=O)(=O)CCNCc1ccc(-c2cc3c(Nc4ccc(OCc5cccc(F)c5)cc4)ncnc3cn2)o1 [Example 6]	1000 to 10000	< 100	< 100	100 to 1000	100 to 1000	100 to 1000	100 to 1000
CCCS(=O)(=O)CCNCc1ccc(-c2ccc3ncnc(Nc4ccc(OCc5cccc(F)c5)c(Cl)c4)c3c2)o1 [Example 7]	100 to 1000	< 100	< 100	1000 to 10000	1000 to 10000	1000 to 10000	1000 to 10000
C=CS(=O)(=O)CCOCc1ccc(-c2ccc3ncnc(Nc4ccc(OCc5cccc(F)c5)c(Cl)c4)c3c2)o1 [Example 14, N-{3-chloro-4-[(3-fluorobenzyl)oxy]phenyl}-6-(5-{[2-(vinylsulfonyl)ethoxy]methyl}-2-furyl)-4-quinazolinamine]	100 to 1000	< 100	< 100	1000 to 10000	1000 to 10000	1000 to 10000	1000 to 10000
CCCN(CCS(C)(=O)=O)Cc1ccc(-c2ccc3ncnc(Nc4ccc(OCc5cccc(F)c5)c(Cl)c4)c3c2)o1 [Example 18, N-{3-chloro-4-[(3-fluorobenzyl)oxy]phenyl}-6-(5-{[[2-(methylsulfonyl)ethyl](propyl)amino]methyl}-2-furyl)-4-quinazolinamine]	< 100	< 100	< 100	100 to 1000	100 to 1000	100 to 1000	100 to 1000

Second part, led by results:

IC50 (c-erbB-4) [nM]	IC50 (c-erbB-2) [nM]	IC50 [1] [nM]	IC50 (BT474 cells) [nM]	Compound	IC50 (N87 cells) [nM]	IC50 (HN5 cells) [nM]	IC50 (HB4a c5.2 cells) [nM]
100 to 1000	< 100	< 100	100 to 1000	Cn1ccnc1S(=O)(=O)CCNCc1ccc(-c2ccc3ncnc(Nc4ccc(OCc5cccc(F)c5)c(Cl)c4)c3c2)o1 [Example 2, (4-(3-Fluorobenzyloxy)-3-chlorophenyl)-(6-(2-((2-(2-N-methylimidazolyl)-sulphonyl-ethylamino)-methyl)-furan-2-yl)-quinazolin-4-yl)-amine]	100 to 1000	100 to 1000	100 to 1000
1000 to 10000	< 100	< 100	100 to 1000	CS(=O)(=O)CCNCCCc1ccc(-c2ccc3ncnc(Nc4ccc(OCc5ccccc5)c(Cl)c4)c3c2)o1 [Example 8]	100 to 1000	100 to 1000	100 to 1000
100 to 1000	< 100	< 100	100 to 1000	CS(=O)(=O)CCOCc1ccc(-c2ccc3ncnc(Nc4ccc(OCc5cccc(F)c5)c(Cl)c4)c3c2)o1 [Example 13, N-{3-chloro-4-[(3-fluorobenzyl)oxy]phenyl}-6-(5-{[2-(methylsulfonyl)ethoxy]methyl}-2-furyl)-4-quinazolinamine]	100 to 1000	100 to 1000	100 to 1000
100 to 1000	< 100	< 100	< 100	CS(=O)(=O)CCN(CC#N)Cc1ccc(-c2ccc3ncnc(Nc4ccc(OCc5cccc(F)c5)c(Cl)c4)c3c2)o1 [Example 15, 2-{{[5-(4-{3-chloro-4-[(3-fluorobenzyl)oxy]anilino}-6-quinazolinyl)-2-furyl]methyl}[2-(methylsulfonyl)ethyl]amino}acetonitrile]	100 to 1000	< 100	100 to 1000
100 to 1000	100 to 1000	–	100 to 1000	CS(=O)(=O)CCN(Cc1ccccc1)Cc1ccc(-c2ccc3ncnc(Nc4ccc(OCc5cccc(F)c5)c(Cl)c4)c3c2)o1 [Example 16, 6-[5-({benzyl[2-(methylsulfonyl)ethyl]amino}methyl)-2-furyl]-N-{3-chloro-4-[(3-fluorobenzyl)oxy]phenyl}-4-quinazolinamine]	100 to 1000	1000 to 10000	1000 to 10000
100 to 1000	< 100	< 100	100 to 1000	CCN(CCS(C)(=O)=O)Cc1ccc(-c2ccc3ncnc(Nc4ccc(OCc5cccc(F)c5)c(Cl)c4)c3c2)o1 [Example 17, N-{3-chloro-4-[(3-fluorobenzyl)oxy]phenyl}-6-[5-({ethyl[2-(methylsulfonyl)ethyl]amino}methyl)-2-furyl]-4-quinazolinamine]	100 to 1000	100 to 1000	100 to 1000
100 to 1000	< 100	–	100 to 1000	CC(C)S(=O)(=O)CCNCc1ccc(-c2ccc3ncnc(Nc4ccc(OCc5cccc(F)c5)c(Cl)c4)c3c2)o1 [Example 19]	100 to 1000	–	100 to 1000
